# Target: T1, Pq3-O-UGT2 (Panax quinquefolius, UniProt A0A0M4ME80)
# T1 construct: pET-28a, C-terminal TEV site and 6xHis tag, E. coli Rosetta (DE3); Ni-NTA, HiTrap Q, Mono Q, Superdex 200; monomer; domains a.a; 1-442
# T1 sequence (A0A0M4ME80 1-442): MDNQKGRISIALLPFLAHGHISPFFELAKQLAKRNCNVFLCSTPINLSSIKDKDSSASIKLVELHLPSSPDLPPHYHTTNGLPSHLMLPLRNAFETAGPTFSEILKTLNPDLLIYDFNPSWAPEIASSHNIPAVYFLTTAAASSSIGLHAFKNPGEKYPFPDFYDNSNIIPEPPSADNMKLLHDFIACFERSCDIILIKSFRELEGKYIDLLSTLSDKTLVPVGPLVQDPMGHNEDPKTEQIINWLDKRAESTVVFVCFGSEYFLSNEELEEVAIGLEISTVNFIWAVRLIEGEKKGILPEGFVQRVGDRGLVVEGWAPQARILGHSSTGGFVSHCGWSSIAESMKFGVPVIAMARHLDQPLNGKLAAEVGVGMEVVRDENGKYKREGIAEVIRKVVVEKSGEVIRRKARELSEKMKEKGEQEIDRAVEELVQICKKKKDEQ
# Experiment: X-ray crystallography, co-crystal, […] Å
# Details: acceptor-binding pocket in N-terminal domain
compound,measurement,value
"CC(C)=CCC[C@](C)(O)[C@H]1CC[C@]2(C)[C@@H]1[C@H](O)C[C@@H]1[C@@]3(C)CC[C@H](O[C@@H]4O[C@H](CO)[C@@H](O)[C@H](O)[C@H]4O)C(C)(C)[C@@H]3CC[C@]12C [Rh2, Ginsenoside Rh2]","X-ray crystallography, co-crystal, 3.5 Å",we solved crystal structures of apo Pq3‐O‐UGT2 and its complex with Rh2

# Reference: article PMC11923902, “Structural Insights into the Substrate Recognition of Ginsenoside Glycosyltransferase Pq3‐O‐UGT2” (Advanced Science, 2025)
